Test results taken from BindingDB's records for doi:10.1021/jm0000416 (University of Paris, 2000).
Numbered stars: 1 amine (or outer) side, 2 acyl side, 3 side chain; on linkers, the order of the positions; unused ones are H or OH. Square brackets hold non-standard residues; d marks the D form. Peptide text beside a SMILES is read from it. * marks the point of attachment. Heptanedioyl = O=C(CCCCCC(=O)[*:2])[*:1]; NMeNle = CCCC[C@H](NC)C(=O)O; Malonamoyl = NC(=O)CC(=O)*; Methoxyacetyl = COCC(=O)*; Isobutyryl = CC(C)C(=O)*; X3 = O=C(CS(=O)(=O)O)*; Boc = CC(C)(C)OC(=O)*; X2 = COC(=O)CC(=O)*; X4 = CC(=O)CC(=O)*; βAla = NCCC(=O)O

Biological target: Gastrin/cholecystokinin type B receptor (Cavia porcellus)
Experiment: Binding affinity against cholecystokinin type B receptor on guinea pig cortex.

| Compound | Ki [nM] |
| --- | --- |
| CCCC[C@@H](C(=O)N[C@@H](CC(=O)O)C(=O)N[C@@H](Cc1ccccc1)C(N)=O)N(C)C(=O)[C@H](Cc1c[nH]c2ccccc12)NC(=O)[C@H](C)N [3-(2-{[2-(2-Amino-propionylamino)-3-(1H-indol-3-yl)-propionyl]-methyl-amino}-hexanoylamino)-N-(1-carbamoyl-2-phenyl-ethyl)-succinamic acid] | 20 |
| CCCC[C@@H](C(=O)N[C@@H](CC(=O)O)C(=O)N[C@@H](Cc1ccccc1)C(N)=O)N(C)C(=O)[C@H](Cc1c[nH]c2ccccc12)NC(=O)CC(N)=O [3-(2-{[2-(2-Carbamoyl-acetylamino)-3-(1H-indol-3-yl)-propionyl]-methyl-amino}-hexanoylamino)-N-(1-carbamoyl-2-phenyl-ethyl)-succinamic acid] (Malonamoyl-W[NMeNle]DF-NH2) | 2.05 |
| CCCC[C@@H](C(=O)N[C@@H](CC(=O)O)C(=O)N[C@@H](Cc1ccccc1)C(N)=O)N(C)C(=O)[C@H](Cc1c[nH]c2ccccc12)NC(=O)CCN [3-(2-{[2-(3-Amino-propionylamino)-3-(1H-indol-3-yl)-propionyl]-methyl-amino}-hexanoylamino)-N-(1-carbamoyl-2-phenyl-ethyl)-succinamic acid] (H-[βAla]W[NMeNle]DF-NH2) | 95 |
| CCCC[C@@H](C(=O)N[C@@H](CC(=O)O)C(=O)N[C@@H](Cc1ccccc1)C(N)=O)N(C)C(=O)[C@H](Cc1c[nH]c2ccccc12)NC(=O)CCNC(=O)OC(C)(C)C [3-(2-{[2-(3-tert-Butoxycarbonylamino-propionylamino)-3-(1H-indol-3-yl)-propionyl]-methyl-amino}-hexanoylamino)-N-(1-carbamoyl-2-phenyl-ethyl)-succinamic acid] ({Boc-βAla}-W[NMeNle]DF-NH2) | 1.35 |
| CCCC[C@@H](C(=O)N[C@@H](CC(=O)O)C(=O)N[C@@H](Cc1ccccc1)C(N)=O)N(C)C(=O)[C@@H](N)Cc1c[nH]c2ccccc12 [3-(2-{[2-Amino-3-(1H-indol-3-yl)-propionyl]-methyl-amino}-hexanoylamino)-N-(1-carbamoyl-2-phenyl-ethyl)-succinamic acid] (H-W[NMeNle]DF-NH2) | 2.6 |
| CCCC[C@@H](C(=O)N[C@@H](CC(=O)O)C(=O)N[C@@H](Cc1ccccc1)C(N)=O)N(C)C(=O)[C@H](Cc1c[nH]c2ccccc12)NC(=O)CCCCCC(=O)O [6-[1-({1-[1-(1-Carbamoyl-2-phenyl-ethylcarbamoyl)-2-carboxy-ethylcarbamoyl]-pentyl}-methyl-carbamoyl)-2-(1H-indol-3-yl)-ethylcarbamoyl]-hexanoic acid] (Heptanedioyl-W[NMeNle]DF-NH2) | 992 |

Results, then the compound that gave them:

| Ki [nM] | Compound |
| --- | --- |
| 2.52 | CCCC[C@@H](C(=O)N[C@@H](CC(=O)O)C(=O)N[C@@H](Cc1ccccc1)C(N)=O)N(C)C(=O)[C@H](Cc1c[nH]c2ccccc12)NC(=O)COC [N-(1-Carbamoyl-2-phenyl-ethyl)-3-(2-{[3-(1H-indol-3-yl)-2-(2-methoxy-acetylamino)-propionyl]-methyl-amino}-hexanoylamino)-succinamic acid] (Methoxyacetyl-W[NMeNle]DF-NH2) |
| 3.61 | CCCC[C@@H](C(=O)N[C@@H](CC(=O)O)C(=O)N[C@@H](Cc1ccccc1)C(N)=O)N(C)C(=O)[C@H](Cc1c[nH]c2ccccc12)NC(=O)CC(=O)OC [N-(1-Carbamoyl-2-phenyl-ethyl)-3-(2-{[3-(1H-indol-3-yl)-2-(2-methoxycarbonyl-acetylamino)-propionyl]-methyl-amino}-hexanoylamino)-succinamic acid] (X2-W[NMeNle]DF-NH2) |
| 0.54 | CCCC[C@@H](C(=O)N[C@@H](CC(=O)O)C(=O)N[C@@H](Cc1ccccc1)C(N)=O)N(C)C(=O)[C@H](Cc1c[nH]c2ccccc12)NC(=O)CS(=O)(=O)O [N-(1-Carbamoyl-2-phenyl-ethyl)-3-(2-{[3-(1H-indol-3-yl)-2-(2-sulfo-acetylamino)-propionyl]-methyl-amino}-hexanoylamino)-succinamic acid] (X3-W[NMeNle]DF-NH2) |
| 3.84 | CCCC[C@@H](C(=O)N[C@@H](CC(=O)O)C(=O)N[C@@H](Cc1ccccc1)C(N)=O)N(C)C(=O)[C@H](Cc1c[nH]c2ccccc12)NC(=O)CC(C)=O [N-(1-Carbamoyl-2-phenyl-ethyl)-3-(2-{[3-(1H-indol-3-yl)-2-(3-oxo-butyrylamino)-propionyl]-methyl-amino}-hexanoylamino)-succinamic acid] (X4-W[NMeNle]DF-NH2) |
| 1.37 | CCCC[C@@H](C(=O)N[C@@H](CC(=O)O)C(=O)N[C@@H](Cc1ccccc1)C(N)=O)N(C)C(=O)[C@H](Cc1c[nH]c2ccccc12)NC(=O)C(C)C [N-(1-Carbamoyl-2-phenyl-ethyl)-3-(2-{[3-(1H-indol-3-yl)-2-isobutyrylamino-propionyl]-methyl-amino}-hexanoylamino)-succinamic acid] (Isobutyryl-W[NMeNle]DF-NH2) |
